Data as given in publication PMC4306520 (Journal of Medicinal Chemistry, 2014).

What was measured:
[1] = system: BxPC-3 cells; assay: MTT assay with palmitate supplementation; format: cell-based, human
[2] = system: FASN; assay: Western blot of FASN expression; format: cell-based, human
[3] = system: BxPC-3 cells; assay: Extracellular pH; format: cell-based, human; settings: BxPC-3, 100 μM, 72 h, data not shown
[4] = system: PANC-1/FASN and PANC-1/Vec cells; assay: Colony formation survival assay, PANC-1/FASN vs PANC-1/Vec; format: cell-based, human
[5] = system: BxPC-3 cells; assay: Apoptosis assay; format: cell-based, human
[6] = target: FASN in PANC-1 cell lysate (Homo sapiens, UniProt P49327); assay: Serine hydrolase FP probe displacement assay, FASN; format: binding; settings: 5 μM FP probe
[7] = system: other Ser hydrolases in PANC-1 cell lysate; assay: Serine hydrolase FP probe displacement assay, other serine hydrolases; format: binding, human; settings: 5 μM FP probe
[8] = system: BxPC-3 cells; assay: Intracellular pH; format: cell-based, human; settings: BxPC-3, different concentrations, 72 h

Sequence of FASN in PANC-1 cell lysate (P49327 whole entry): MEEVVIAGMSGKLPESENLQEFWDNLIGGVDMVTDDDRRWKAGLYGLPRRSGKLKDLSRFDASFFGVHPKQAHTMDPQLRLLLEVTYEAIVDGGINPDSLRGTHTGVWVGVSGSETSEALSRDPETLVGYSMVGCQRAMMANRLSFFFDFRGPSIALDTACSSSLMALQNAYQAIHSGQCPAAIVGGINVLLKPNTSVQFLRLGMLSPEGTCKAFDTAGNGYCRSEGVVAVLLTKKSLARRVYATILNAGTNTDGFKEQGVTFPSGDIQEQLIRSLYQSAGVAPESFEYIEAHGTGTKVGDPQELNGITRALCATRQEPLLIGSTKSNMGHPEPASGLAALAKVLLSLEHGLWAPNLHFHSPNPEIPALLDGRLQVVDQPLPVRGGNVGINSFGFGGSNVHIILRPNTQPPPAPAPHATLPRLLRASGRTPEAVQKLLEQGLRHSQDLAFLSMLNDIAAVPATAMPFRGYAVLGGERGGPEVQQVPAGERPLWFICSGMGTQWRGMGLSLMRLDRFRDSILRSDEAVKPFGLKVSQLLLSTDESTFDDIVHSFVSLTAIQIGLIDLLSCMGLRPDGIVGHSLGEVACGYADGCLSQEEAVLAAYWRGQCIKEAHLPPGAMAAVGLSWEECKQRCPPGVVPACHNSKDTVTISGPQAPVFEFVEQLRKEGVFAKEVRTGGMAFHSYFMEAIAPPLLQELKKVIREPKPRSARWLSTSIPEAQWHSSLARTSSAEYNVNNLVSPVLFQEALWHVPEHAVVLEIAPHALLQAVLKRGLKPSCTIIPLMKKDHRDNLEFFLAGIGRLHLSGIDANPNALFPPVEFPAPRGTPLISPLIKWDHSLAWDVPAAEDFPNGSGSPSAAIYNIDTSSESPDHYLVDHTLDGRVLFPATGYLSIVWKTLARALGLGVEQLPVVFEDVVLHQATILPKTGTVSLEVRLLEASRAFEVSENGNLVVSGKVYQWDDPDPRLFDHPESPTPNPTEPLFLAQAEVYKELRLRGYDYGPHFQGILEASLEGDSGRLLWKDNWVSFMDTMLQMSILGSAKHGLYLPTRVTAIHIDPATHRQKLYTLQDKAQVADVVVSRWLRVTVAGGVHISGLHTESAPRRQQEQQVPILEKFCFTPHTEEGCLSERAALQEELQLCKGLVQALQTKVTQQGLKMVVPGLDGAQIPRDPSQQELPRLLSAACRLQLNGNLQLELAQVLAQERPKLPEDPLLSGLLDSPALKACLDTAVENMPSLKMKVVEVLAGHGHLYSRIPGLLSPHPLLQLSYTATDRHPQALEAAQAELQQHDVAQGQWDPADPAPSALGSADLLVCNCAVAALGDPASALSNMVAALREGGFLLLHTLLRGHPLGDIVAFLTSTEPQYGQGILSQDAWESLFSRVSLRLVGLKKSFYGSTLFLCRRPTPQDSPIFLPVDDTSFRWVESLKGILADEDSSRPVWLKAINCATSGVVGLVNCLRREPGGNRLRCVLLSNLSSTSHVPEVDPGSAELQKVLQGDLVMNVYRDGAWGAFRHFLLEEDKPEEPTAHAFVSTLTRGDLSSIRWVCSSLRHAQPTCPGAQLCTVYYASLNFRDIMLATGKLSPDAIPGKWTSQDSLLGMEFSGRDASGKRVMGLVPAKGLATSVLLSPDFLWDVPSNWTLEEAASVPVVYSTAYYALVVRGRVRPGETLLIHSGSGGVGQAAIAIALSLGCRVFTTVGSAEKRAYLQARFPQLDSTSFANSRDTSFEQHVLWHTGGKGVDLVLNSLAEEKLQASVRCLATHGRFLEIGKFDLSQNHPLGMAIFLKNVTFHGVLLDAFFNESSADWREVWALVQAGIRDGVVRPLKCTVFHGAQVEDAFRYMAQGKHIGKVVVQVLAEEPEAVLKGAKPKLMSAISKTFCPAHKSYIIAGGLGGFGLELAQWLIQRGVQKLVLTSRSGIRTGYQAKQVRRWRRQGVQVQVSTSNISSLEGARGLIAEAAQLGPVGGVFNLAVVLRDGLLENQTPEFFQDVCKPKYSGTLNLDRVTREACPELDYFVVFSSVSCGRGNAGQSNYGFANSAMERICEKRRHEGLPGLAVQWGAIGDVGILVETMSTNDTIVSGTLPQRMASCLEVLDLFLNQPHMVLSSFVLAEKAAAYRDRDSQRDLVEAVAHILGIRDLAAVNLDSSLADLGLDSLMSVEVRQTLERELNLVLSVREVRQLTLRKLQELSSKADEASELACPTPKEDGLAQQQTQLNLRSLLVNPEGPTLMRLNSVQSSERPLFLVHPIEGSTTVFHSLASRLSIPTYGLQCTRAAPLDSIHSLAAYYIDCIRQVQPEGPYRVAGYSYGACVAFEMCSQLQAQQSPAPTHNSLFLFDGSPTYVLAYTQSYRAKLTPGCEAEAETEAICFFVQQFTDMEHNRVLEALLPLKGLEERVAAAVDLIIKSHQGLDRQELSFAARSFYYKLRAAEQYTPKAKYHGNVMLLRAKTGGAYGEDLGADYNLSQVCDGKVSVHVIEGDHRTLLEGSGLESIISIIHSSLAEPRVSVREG

Compound | effect of palmitate alone on cell survival ([1]; BxPC-3, 3.75 μM) | effect of palmitate on FASN expression ([2]; 3.75 μM palmitate, Figure 5B) | effect on extracellular pH [3] | sensitivity of PANC-1/FASN cells versus PANC-1/Vec cells [4] | effect of palmitate supplementation on lansoprazole-induced apoptosis ([5]; 3.75 μM palmitate) | induction of apoptosis (DNA fragments, cleaved PARP-1) ([5]; ELISA 72 h, PARP Western blot 24 h) | inhibition of FP serine hydrolase probe labeling of FASN [6] | effect on binding of FP probe to other Ser hydrolases [7] | effect on intracellular pH [8] | effect of palmitate supplementation on lansoprazole cytotoxicity ([1]; 3.75 μM palmitate) | effect on total FASN level ([2]; lansoprazole treatment, Figure 4D)
CCCCCCCCCCCCCCCC(=O)O [palmitate] | no significant effect on BxPC-3 cell survival | did not reduce FASN expression |  |  |  |  |  |  |  |  | 
Cc1c(OCC(F)(F)F)ccnc1C[S+]([O-])c1nc2ccccc2[nH]1 (centres unmarked) [Lansoprazole] |  |  | no change in extracellular pH | significantly more sensitive to lansoprazole than the control PANC-1/Vec cells | reduced lansoprazole-induced apoptosis | dose-dependently caused formation of DNA fragments and cleaved PARP-1 | inhibited labeling of FASN by the FP probe in a dose-dependent manner | no effect on the binding of the FP probe to other Ser hydrolases | no significant effect on intracellular pH | significantly increased cellular resistance to lansoprazole | no effect on the total FASN level
